From patent US20210382037A1, “IDENTIFICATION AND USE OF CYTOTOXIC T LYMPHOCYTE (CTL) ANTIGEN-SPECIFIC TARGET CELL KILLING ENHANCER AGENTS” (DANA-FARBER CANCER INSTITUTE, INC., priority 2017, published 2021)

Key:
[1] = tested on: ID8-lucOS cells (OVA-expressing ID8 target cells) co-cultured with OT-I CD8+ T cells; experiment: OT-I CTL assay, high-throughput compound screen and dose-response validation; assay type: cell-based, mouse; conditions: for effect on OT-I T cell killing of ID8-lucOS target cells, dose-response validation: dose-response curves; for effect on OT-I T cell killing of ID8-lucOS target cells, dose-response validation / effect on OT-I T cell-mediated target cell lysis (normalized firefly/renilla luciferase ratio relative to DMSO): 48 hr; for effect on OT-I T cell-mediated target cell lysis (normalized firefly/renilla luciferase ratio relative to DMSO): pilot screen, 1 μM, duplicate plates
Procedure: 10,000 ID8-lucOS and 10,000 ID8-rluc cells were plated in 1004, of cell culture media (DMEM+10% FBS+pen/strep) in solid white, flat-bottomed, tissue culture-treated 96-well plates (Thermo Fisher, Waltham, Mass.). Overnight-stimulated OT-I CD8^+ T cells were then added at the designated Effector:Target ratios with or without compounds in a total volume of 200 μL. Plates were incubated for 48 hr at 37° C. and 5% CO2. After 48 hr timepoint, 1004, of media was removed prior to dual-luciferase assay. Briefly: 504, of homemade Dual-Glo® luciferase buffer (Lu et al. Science 343: 305-309) was added to wells and incubated for 30 min before analysis of Firefly luminescence; then 504, of Dual-Glo® Stop & Glo® buffer was added, plates were incubated for 30 min, then analyzed for Renilla luminescence. An EnSpire plate reader (PerkinElmer, Waltham, Mass.) was used for quantification of luminescence. 203 compounds (listed above; details for LINCS kinase library can be found at lincs.hms.harvard.edu/db/sm/) were screened in high-throughput at 1 μM final concentration in duplicate, in 96-well plates in a first set that contained both OT-I CTLs and ID8 target cells and in a second set that contained ID8 target cells only. No compounds were placed in edge wells and all plates contained multiple DMSO control cells. Hits were calculated based on ΔΔCt method whereby ΔΔCt=(FLucDMSO/RLucDMSO)/(FLucCompound/RLucCompound) where values >1 were assessed as having augmented CTL killing, values ˜1 were assessed as having negligible immunomodulatory effect, and values <1 were assessed as having inhibited CTL killing. Hits from the high-throughput screen were validated with dose response curves using the indicated drug concentrations.
For development of the OT-I IO assay, the ID8 murine serous ovarian carcinoma cell line was utilized due to its constitutive expression of MHC class-I, MHC haplotype compatibility with C57BL/6J mice, and dramatic IFN-γ-induced upregulation of PD-L1 (FIG. 10A and FIG. 10B). ID8s were transduced with pLVX vectors to express either firefly luciferase and OVA model antigen (“lucOS”) or renilla luciferase and no model antigen (“rluc”) (FIG. 2A). Target ID8 cell lines were mixed at a 1:1 ratio and co-cultured with CD8+ T cells isolated from the spleens of OT-I TCR-transgenic mice; OT-I mice express transgenic TCRα-V2 and TCRβ-V5 genes such that all CD8+ T cell receptors recognize chicken ovalbumin residues 257-264 ([…]) in the context of H-2Kb (Hogquist et al., 1994 Cell, 76:17-27). Target cell-T cell cultures were incubated with compounds for 48 hr and then analyzed by dual-luciferase assay whereby changes in firefly signal relative to controls indicated modulation of T cell killing by compound treatment (FIG. 2B and FIG. 2C).
A high-throughput assay capable of identifying test compounds that specifically impaired or enhanced CD8^+ T cell-mediated killing of target ID8-lucOS “clone B9” cells in an antigen-specific manner was developed, as depicted in FIG. 2B. In such assays, a 96-well tissue culture plate array format was employed, and in each well, 10,000 ID8-lucOS and 10,000 ID8-rluc were co-plated. […] The OT-I assay was then performed as a high-throughput screen (FIG. 2C) to evaluate test compounds for immunomodulatory effects upon antigen-specific tumor cell killing by cytotoxic T lymphocytes (CTLs). Inclusion of ID8-lucOS and ID8-rluc in each well of the array-formatted test compound assay provided in-plate normalization controls, which allowed for identification of test compounds that effected non-specific growth inhibition or induction of apoptosis, versus identification of modulation by screen compounds of antigen-specific tumor cell killing by cytotoxic T lymphocytes. Such high-throughput screening was performed under standard ID8 cell growth conditions (37° C. and 5% 02) for initial rounds of test compound screening. […]

[2] = tested on: IFN-γ secretion by OT-I CD8+ T cells; experiment: OT-I IFN-γ ELISA; assay type: cell-based, mouse; conditions: supernatants at 48 hr; 100, 50, 10, 5, 1 nM; E:T 1:1 and 2:1
Procedure: The supernatants from OT-I CTL assays, as described above, were harvested at the 48 hr timepoint prior to dual luciferase assay and analyzed for IFN-γ secretion by LEGEND MAX™ Mouse IFN-γ ELISA Kit (Biolegend, San Diego, Calif.) according to the manufacturer's protocol. […] Conditions were assayed with four replicate wells per experiment.
Cell culture media from the OT-I IO assay was harvested from wells following 48 hr of culture with a range of EGFR inhibitors and the JAK2 inhibitor AZD-1480 and assessed for IFN-γ levels by ELISA. Secretion of IFN-γ was used as a proxy for OT-I T cell effector function. […] None of the EGFR inhibitors affected IFN-γ secretion, leading to the conclusion that the immunomodulatory effect of EGFR inhibition in the assay was not due to T cell-intrinsic effects.

[3] = tested on: MC38 colon cancer cells; assay type: in vivo; conditions: log-rank Mantel-Cox
Procedure: C57BL/6J stock #000664 mice (Jackson labs, Bar Harbor, Me.) were challenged subcutaneously with 500,000 MC38 colon cancer cells on their flanks and “enrolled” on-study when tumors reached 50 mm^3. […] Depleting aCD8α was administered two days prior to first aPD-1 treatment. Mice used in experiments were 7-8 weeks of age at time of tumor challenge. Endpoint was considered to be when tumors reached a size of 2000 mm^3 or as mandated by institutional guidelines due to development of necrotic lesions.
Specifically, for each of the experiments, C57BL/6J mice were challenged subcutaneously with 500,000 MC38 colon cancer cells on their flanks and “enrolled” on-study when tumors reached 50 mm^3. […] Flank tumor growth curves were analyzed using two-way ANOVA, bar graphs were analyzed using unpaired Student's t-test, and survival experiments used the log-rank Mantel-Cox test for survival analysis, all indicated with *p<0.05; **p<0.01; ***p<0.001.

[4] = tested on: OVA-expressing KP cells (Kras^G12D/p53^−/− lung adenocarcinoma) co-cultured with OT-I CD8+ T cells; conditions: KP-Cas9 lucOS cells co-cultured with OT-I CD8+ T cells
Description: The KP cell line was transduced with the same vectors to stably express Cas9 and the lusOS construct and co-cultured with OT-I CD8+ T cells.

[5] = tested on: MHC class-I (H-2K^b) on ID8 tumor cells; experiment: Flow cytometry of MHC class-I expression, ID8; assay type: cell-based, mouse; conditions: 100 nM, 48 hr, vs DMSO; for basal expression of MHC class-I by ID8 tumor cells: no IFN-γ; for MHC class-I expression induced by physiological levels of IFN-γ, ID8 tumor cells: with recombinant mouse IFN-γ
Procedure: 100,000 ID8-lucOS, ID8-lucOS sgEGFR KO, Kras^G12D;p53^−/−, and MC38 cell lines were cultured in 12-well plates in 2 mL of culture media (DMEM+10% FBS+pen/strep) alone or supplemented with 4 ng/mL recombinant mouse IFN-γ (Biolegend, San Diego, Calif.) for 48 hr. […] Data were analyzed using FlowJo (Ashland, Oreg.) software version 10.0.9.

[6] = tested on: r/m SCCHN; conditions: r/m SCCHN patients; cited from earlier work
[7] = target: chicken ovalbumin residues 257-264 (SIINFEKL) in the context of H-2Kb, presented on ID8-lucOS cells (mouse; chicken); experiment: cell-based or functional assay

Compound: O=C1Nc2cc(Br)ccc2C1=C1Nc2ccccc2C1=O [6-bromoindirubin]
- effect on OT-I T cell killing of ID8-lucOS target cells, dose-response validation [1]: only modestly augmented T cell killing
- effect on OT-I T cell-mediated target cell lysis (normalized firefly/renilla luciferase ratio relative to DMSO) [1]: significantly augmented T cell killing

Compound: Cc1cc(Nc2nc(N[C@@H](C)c3ncc(F)cn3)ncc2Cl)n[nH]1 [AZD-1480]
- IFN-γ secretion (ELISA) [2]: significantly inhibited IFN-γ secretion in a dose-dependent manner
- effect on OT-I T cell killing of ID8-lucOS target cells, dose-response validation [1]: significantly inhibited T cell killing
- effect on OT-I T cell-mediated target cell lysis (normalized firefly/renilla luciferase ratio relative to DMSO) [1]: inhibited T cell-mediated target cell lysis

Compound: O=C(O)c1ccc(Nc2ncc3c(n2)-c2ccc(Cl)cc2C(c2c(F)cccc2F)=NC3)cc1 [MLN8054]
- effect on OT-I T cell-mediated target cell lysis (normalized firefly/renilla luciferase ratio relative to DMSO) [1]: inhibited T cell-mediated target cell lysis

Compound: COc1cc(OC)c(/C=C/S(=O)(=O)Cc2ccc(OC)c(NCC(=O)O)c2)c(OC)c1 [Rigosertib]
- effect on OT-I T cell-mediated target cell lysis (normalized firefly/renilla luciferase ratio relative to DMSO) [1]: inhibited T cell-mediated target cell lysis

Compound: CC(C)(C)c1cnc(CSc2cnc(NC(=O)C3CCNCC3)s2)o1 [SNS-032]
- effect on OT-I T cell-mediated target cell lysis (normalized firefly/renilla luciferase ratio relative to DMSO) [1]: inhibited T cell-mediated target cell lysis

Compound: CN1C(=O)c2ccccc2N(C)c2nc(Nc3ccc(N4CCC(O)CC4)cc3)ncc21 [XMD-12-1]
- effect on OT-I T cell-mediated target cell lysis (normalized firefly/renilla luciferase ratio relative to DMSO) [1]: inhibited T cell-mediated target cell lysis

Compound: CN(C)C/C=C/C(=O)Nc1cc2c(Nc3ccc(F)c(Cl)c3)ncnc2cc1O[C@H]1CCOC1 [afatinib]
- survival relative to controls [3]: none
- OT-I T cell-mediated lysis of OVA-expressing KP cells [4]: significantly enhanced
- basal expression of MHC class-I by ID8 tumor cells [5]: significantly increased
- MHC class-I expression induced by physiological levels of IFN-γ, ID8 tumor cells [5]: significantly increased
- IFN-γ secretion (ELISA) [2]: did not appear to exert any enhancing effect
- lysis of OVA-expressing ID8 target cells ([1]; concentrations down to 10 nM): lysis of almost all OVA-expressing ID8 target cells
- effect on OT-I T cell killing of ID8-lucOS target cells, dose-response validation [1]: significantly augmented OT-I T cell killing
- reported ORR to monotherapy [6]: 10%

Compound: C#Cc1cccc(Nc2ncnc3cc(OCCOC)c(OCCOC)cc23)c1 [erlotinib]
- OT-I T cell-mediated lysis of OVA-expressing KP cells [4]: significantly enhanced
- basal expression of MHC class-I by ID8 tumor cells [5]: significantly increased
- MHC class-I expression induced by physiological levels of IFN-γ, ID8 tumor cells [5]: significantly increased
- IFN-γ secretion (ELISA) [2]: did not appear to exert any enhancing effect
- effect on OT-I T cell killing of ID8-lucOS target cells, dose-response validation [1]: confirmed to augment T cell-mediated tumor cell lysis
- effect on OT-I T cell-mediated target cell lysis (normalized firefly/renilla luciferase ratio relative to DMSO) [1]: significantly augmented T cell killing

Compound: COc1cc2ncnc(Nc3ccc(F)c(Cl)c3)c2cc1OCCCN1CCOCC1 [gefitinib]
- OT-I T cell-mediated lysis of OVA-expressing KP cells [4]: significantly enhanced
- basal expression of MHC class-I by ID8 tumor cells [5]: significantly increased
- MHC class-I expression induced by physiological levels of IFN-γ, ID8 tumor cells [5]: significantly increased
- IFN-γ secretion (ELISA) [2]: did not appear to exert any enhancing effect
- effect on OT-I T cell killing of ID8-lucOS target cells, dose-response validation [1]: significantly augmented OT-I T cell killing

Compound: O=C1Nc2ccccc2/C1=C1/Nc2ccccc2C1=O [indirubicin]
- effect on OT-I T cell killing of ID8-lucOS target cells, dose-response validation [1]: only mildly immunomodulatory

Compound: C=CC(=O)Nc1cc(Nc2nccc(-c3cn(C)c4ccccc34)n2)c(OC)cc1N(C)CCN(C)C [osimertinib]
- effect on OT-I T cell killing of ID8-lucOS target cells, dose-response validation [1]: modestly enhanced killing

Compound: O=c1sn(-c2cccc3ccccc23)c(=O)n1Cc1ccccc1 [tideglusib]
- effect on OT-I T cell killing of ID8-lucOS target cells, dose-response validation [1]: only mildly immunomodulatory

Compound: OT-I transgenic T cell receptor (TCRα-V2 / TCRβ-V5) on OT-I CD8+ T cells
- % killing of OVA-expressing ID8-lucOS target cells (dual-luciferase assay, 48 hr) [7]: 50 % killing

Compound: pembrolizumab
- reported ORR to monotherapy [6]: 16%
